Results: US20220119354A1, “DIAMINO-SUBSTITUTED PYRIDINES AND PYRIMIDINES AS HERBICIDES” (FMC Corporation, priority 2019, published 2022)

Key:
Type in all cases: in vivo
corn (Zea mays) = assay: Test A postemergence, corn; conditions: 0 to 100 scale
Procedure, shortened: (§1)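 Plants grown in a loam soil and sand blend were treated either preemergence by directed soil spray or postemergence when 2 to 10 cm tall (one- to two-leaf stage). Formulation: non-phytotoxic solvent mixture with surfactant. Greenhouse hold ~10 d, then visual injury assessment on a 0–100 scale.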

[1] = tested on: blackgrass (Alopecurus myosuroides); assay: Test A postemergence, blackgrass; conditions: 0 to 100 scale
Procedure, shortened: as §1

[2] = tested on: ryegrass, Italian (Lolium multiflorum); assay: Test A postemergence, Italian ryegrass; conditions: 0 to 100 scale
Procedure, shortened: as §1

[3] = tested on: wheat (Triticum aestivum); assay: Test A postemergence, wheat; conditions: 0 to 100 scale
Procedure, shortened: as §1

[4] = tested on: foxtail, giant (Setaria faberii); assay: Test A preemergence, giant foxtail; conditions: 0 to 100 scale
Procedure, shortened: as §1

[5] = tested on: ducksalad (Heteranthera limosa); assay: Test B flooded paddy test, ducksalad; conditions: Flood, 250 g ai/ha, applied to paddy water, 2-leaf stage, visual evaluation after 13 to 15 d
Procedure, shortened: (§2)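 Growth to two leaves preceded treatment. Flooding to 3 cm above soil surface, then water-applied compound; depth kept constant. Scored visually relative to controls after 13–15 d greenhouse; 100 means full control.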

kochia (Kochia scoparia) [6] = assay: Test A preemergence, kochia; conditions: 0 to 100 scale
Procedure, shortened: as §1

[7] = tested on: barnyardgrass (Echinochloa crus-galli); assay: Test A preemergence, barnyardgrass; conditions: 0 to 100 scale
Procedure, shortened: as §1

[8] = tested on: sedge, umbrella (small-flower umbrella sedge, Cyperus difformis); assay: Test B flooded paddy test, umbrella sedge; conditions: Flood, 250 g ai/ha, applied to paddy water, 2-leaf stage, visual evaluation after 13 to 15 d
Procedure, shortened: as §2

kochia (Kochia scoparia) [9] = assay: Test A postemergence, kochia; conditions: 0 to 100 scale
Procedure, shortened: as §1

[10] = tested on: galium (catchweed bedstraw, Galium aparine); assay: Test A postemergence, galium; conditions: 0 to 100 scale
Procedure, shortened: as §1

[11] = tested on: foxtail, giant (Setaria faberii); assay: Test A postemergence, giant foxtail; conditions: 0 to 100 scale
Procedure, shortened: as §1

[12] = tested on: ragweed (common ragweed, Ambrosia elatior); assay: Test A preemergence, ragweed; conditions: 0 to 100 scale
Procedure, shortened: as §1

[13] = tested on: barnyardgrass (Echinochloa crus-galli); assay: Test A postemergence, barnyardgrass; conditions: 0 to 100 scale
Procedure, shortened: as §1

[14] = tested on: barnyardgrass (Echinochloa crus-galli); assay: Test B flooded paddy test, barnyardgrass; conditions: Flood, 250 g ai/ha, applied to paddy water, 2-leaf stage, visual evaluation after 13 to 15 d
Procedure, shortened: as §2

rice (Oryza sativa) = assay: Test B flooded paddy test, rice; conditions: Flood, 250 g ai/ha, applied to paddy water, 2-leaf stage, visual evaluation after 13 to 15 d
Procedure, shortened: as §2

[15] = tested on: ragweed (common ragweed, Ambrosia elatior); assay: Test A postemergence, ragweed; conditions: 0 to 100 scale
Procedure, shortened: as §1

[16] = tested on: pigweed (Amaranthus retroflexus); assay: Test A postemergence, pigweed; conditions: 0 to 100 scale
Procedure, shortened: as §1

[17] = tested on: ryegrass, Italian (Lolium multiflorum); assay: Test A preemergence, Italian ryegrass; conditions: 0 to 100 scale
Procedure, shortened: as §1

[18] = tested on: pigweed (Amaranthus retroflexus); assay: Test A preemergence, pigweed; conditions: 0 to 100 scale
Procedure, shortened: as §1

Row | SMILES | Plant response rating, Corn (corn (Zea mays); 125 g ai/ha) | Plant response rating, Corn (corn (Zea mays); 500 g ai/ha) | Plant response rating, Blackgrass ([1]; 125 g ai/ha) | Plant response rating, Blackgrass ([1]; 500 g ai/ha) | Plant response rating, Ryegrass, Italian ([2]; 125 g ai/ha) | Plant response rating, Ryegrass, Italian ([2]; 500 g ai/ha) | Plant response rating, Wheat ([3]; 125 g ai/ha) | Plant response rating, Wheat ([3]; 500 g ai/ha) | Plant response rating, Foxtail, Giant ([4]; 125 g ai/ha) | Plant response rating, Foxtail, Giant ([4]; 500 g ai/ha) | Plant response rating, Ducksalad (0 to 100 scale, 0 is no effect, 100 is complete control) [5] | Plant response rating, Kochia (kochia (Kochia scoparia) [6]; 125 g ai/ha) | Plant response rating, Kochia (kochia (Kochia scoparia) [6]; 500 g ai/ha) | Plant response rating, Barnyardgrass ([7]; 125 g ai/ha) | Plant response rating, Barnyardgrass ([7]; 500 g ai/ha) | Plant response rating, Sedge, Umbrella (0 to 100 scale, 0 is no effect, 100 is complete control) [8] | Plant response rating, Kochia (kochia (Kochia scoparia) [9]; 125 g ai/ha) | Plant response rating, Kochia (kochia (Kochia scoparia) [9]; 500 g ai/ha) | Plant response rating, Galium ([10]; 125 g ai/ha) | Plant response rating, Galium ([10]; 500 g ai/ha) | further results
1 | CC[C@H](COc1cc(C)cc(C)c1)Nc1ncc(C(F)(F)F)c(N)n1 [Compound 27] | 0 | 20 | 10 | 50 | 0 | 0 | 0 | 20 | 20 | 90 | 0 | 0 | 40 | 10 | 90 | 50 | 0 | 70 | 90 | 90 | Plant response rating, Foxtail, Giant ([11]; 125 g ai/ha): 0; Plant response rating, Foxtail, Giant ([11]; 500 g ai/ha): 20; Plant response rating, Ragweed ([12]; 125 g ai/ha): 70; Plant response rating, Ragweed ([12]; 500 g ai/ha): 90; Plant response rating, Barnyardgrass ([13]; 125 g ai/ha): 0; Plant response rating, Barnyardgrass ([13]; 500 g ai/ha): 20; Plant response rating, Barnyardgrass (0 to 100 scale, 0 is no effect, 100 is complete control) [14]: 0; Plant response rating, Rice (0 to 100 scale, 0 is no effect, 100 is complete control) (rice (Oryza sativa)): 0; Plant response rating, Ragweed ([15]; 125 g ai/ha): 20; Plant response rating, Ragweed ([15]; 500 g ai/ha): 90; Plant response rating, Pigweed ([16]; 125 g ai/ha): 60; Plant response rating, Pigweed ([16]; 500 g ai/ha): 90; Plant response rating, Ryegrass, Italian ([17]; 125 g ai/ha): 30; Plant response rating, Ryegrass, Italian ([17]; 500 g ai/ha): 80; Plant response rating, Pigweed ([18]; 125 g ai/ha): 10; Plant response rating, Pigweed ([18]; 500 g ai/ha): 80
2 | C[C@@H](Nc1ncc(C(F)(F)F)c(N)n1)c1cc2ccc(Cl)cc2o1 [Compound 29] | 0 | 10 | 0 | 10 | 0 | 10 | 0 | 0 | 60 | 90 | 0 | 0 | 80 | 0 | 90 | 0 | 50 | 90 | 80 | 100 | Plant response rating, Foxtail, Giant ([11]; 125 g ai/ha): 0; Plant response rating, Foxtail, Giant ([11]; 500 g ai/ha): 50; Plant response rating, Ragweed ([12]; 125 g ai/ha): 20; Plant response rating, Ragweed ([12]; 500 g ai/ha): 80; Plant response rating, Barnyardgrass ([13]; 125 g ai/ha): 20; Plant response rating, Barnyardgrass ([13]; 500 g ai/ha): 80; Plant response rating, Barnyardgrass (0 to 100 scale, 0 is no effect, 100 is complete control) [14]: 0; Plant response rating, Rice (0 to 100 scale, 0 is no effect, 100 is complete control) (rice (Oryza sativa)): 0; Plant response rating, Ragweed ([15]; 125 g ai/ha): 20; Plant response rating, Ragweed ([15]; 500 g ai/ha): 90; Plant response rating, Pigweed ([16]; 125 g ai/ha): 100; Plant response rating, Pigweed ([16]; 500 g ai/ha): 100; Plant response rating, Ryegrass, Italian ([17]; 125 g ai/ha): 20; Plant response rating, Ryegrass, Italian ([17]; 500 g ai/ha): 70; Plant response rating, Pigweed ([18]; 125 g ai/ha): 90; Plant response rating, Pigweed ([18]; 500 g ai/ha): 100
